The results in this text go back to US20210317102A1, “INHIBITORS OF INTEGRATED STRESS RESPONSE PATHWAY” (Praxis Biotech LLC, priority 2019, published 2021).

Assay [1] relates to ATF4 expression, HEK293T cells carrying the ATF4 luciferase reporter. The assay is described as follows: ATF4 expression inhibition assay (ATF4 luciferase reporter). Format: cell-based. Conditions: Homo sapiens, HEK-293T, 100 nM thapsigargin, 3 hours. Put shortly: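 Stable HEK293T line expressing firefly luciferase behind the human full-length ATF4 5′UTR; cells stressed with 100 nM thapsigargin alongside compound (1 nM–10 μM) for 3 h at 37 °C. Luminescence normalized to Tg alone (0% inhibition) and untreated cells (100% inhibition) to give % ATF4 inhibition.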
(A reporter such as luciferase makes a cellular process visible.)

Assay [2] deals with Chinese hamster ovary (CHO) cells. The assay is described as follows: Protein synthesis assay (puromycin incorporation, western blot). Type of assay: cell-based. Conditions: 2 hours, media alone = 100%. In a few lines: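 CHO cells treated 2 h with 1 μM compound alone, or with 300 nM thapsigargin plus 1 μM compound, then pulsed 30 min with 10 μg/ml puromycin. Puromycin incorporation read by anti-puromycin western blot with densitometry. Unstressed values normalized to media alone (100%); stressed recovery normalized to media alone (100%) and Tg alone (0%).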
In general terms: Immunoblotting shows a protein as a band on a membrane.

Assay [3] relates to male Balb/c mice. The assay is described as follows: Fasting-induced muscle atrophy. Format: in vivo. Conditions: fasted mice, 10 mg/kg oral, compared to vehicle-treated fasted mice. As to the method: Wild type eight-weeks-old male Balb/c mice obtained from the vivarium Fundación Ciencia & Vida Chile (Santiago, Chile) are used. Mice are housed in independent plastic cages in a room maintained at 25° C. with a 12-h:12-h light:dark cycle.
Twenty-four hours before and during the 2 days of fasted procedures, animals receive oral administration via feeding tubes (15 gauge) of vehicle (50% Polyethylene glycol 400 (Sigma-Aldrich P3265) in distilled water or 10 mg/kg of test compound formulated in vehicle solution.
After 2 days of fasting the animals are sacrificed and muscles are removed from both hindlimbs. Mice with feed and water ad libitum are used as control. […]
Upon collection, muscles are immediately frozen in liquid nitrogen and then stored at −80° C. […] Protein concentration in supernatants is determined using BCA Protein Assay Kit (Pierce). […]
Puromycin (12D10) (Merck Millipore), MuRF-1 (Santa Cruz Biotechnology) and 3-actin (Sigma-Aldrich) antibodies are used as primary antibodies. […] Quantification of protein bands is done by densitometry using ImageJ software.
Expression of the muscle atrophy marker MuRF-1 in quadriceps from fed or fasted mice treated with vehicle or compound 11 is shown in FIG. 1D. The levels were normalized to β-actin expression and fold change was calculated as the level relative to MuRF-1 levels from control mice (Fed) which correspond to 1.

Usually IC50 stands for the concentration that inhibits the measured activity by half. High values mean weaker potency in that assay, low ones greater potency in that assay. As to `O=C(COc1ccc(Cl)c(F)c1)N[C@H]1CC[C@H](CNC(=O)c2cc3cc(Cl)ccc3o2)CC1` [Compound 11, trans-5-chloro-N-((4-(2-(4-chloro-3-fluorophenoxy)acetamido)cyclohexyl)methyl)benzofuran-2-carboxamide], the IC50 in assay [1] worked out at 0.82 nM. Besides, in assay [2] (Cricetulus griseus, unstressed CHO cells (without Tg), 1 μM test compound, read-out: % Protein synthesis relative to untreated (1 μM test compound)), the activity at 1 µM amounted to 187%. Moreover, in assay [2] (stressed CHO cells, 300 nM Tg plus 1 μM test compound, Tg alone = 0%), the “% Recovery of protein synthesis (1 μM test compound)” value is 298.9%. In addition, the “Expression of the muscle atrophy marker MuRF-1 in quadriceps” value in assay [3] is listed as “reduction of MuRF-1 expression”.
